# Values quoted from earlier work, collected in publication PMC10623564, “Ruthenium-Based Photoactivated Chemotherapy” (Journal of the American Chemical Society, 2023).
# Read-outs that look alike come from different tables or passages of the source. Marks after values point to notes of the source that are not given here.
# How the values were obtained:
# [1] = for φΔ, singlet oxygen (1O2) generation quantum yield: in CD3OD solution
# [2] = conditions not given
# [3] = for φPS, photosubstitution of one axial MeCN by chloride: 298 K, in CH2Cl2; for φPS, mtep photosubstitution: in acetonitrile (521 nm printed for 23^+)
# CYP3A4 = tested on: CYP3A4; design: method as in PMID 34110801; details: Figure 8c, read-out: IC50, CYP3A4 protein activity
# A431 skin cancer cells = tested on: A431 skin cancer cells; design: method as in PMID 28666065
# NAMPT = tested on: NAMPT; design: method as in PMID 28666065
# [4] = not given; remark: listed apart in the source
# cancer cells = tested on: cancer cells; design: method as in PMID 30155140; details: photosubstitution of the axial dmso ligand
# [5] = tested on: CRMM1 conjunctival melanoma cancer cell line; design: method as in PMID 35774173; details: CRMM1 cells, green light
# [6] = tested on: PC3Pro4 ectopic prostate zebrafish tumor model; design: method as in PMID 35774173; details: compound in water or intravenous injection, green light
# [7] = tested on: CRMM2 conjunctival melanoma cancer cell line; design: method as in PMID 35774173; details: CRMM2 cells, green light
# [8] = tested on: PC3Pro4 prostate cancer cell lines; design: method as in PMID 35774173; details: PC3Pro4 cells, green light
# [9] = tested on: orthotopic CRMM1 eye tumor model; design: method as in PMID 35774173
# [10] = λexc 450 nm, in acetonitrile, room temperature
# [11] = λexc 450 nm, in water, room temperature
# [12] = λexc not given, in water, room temperature
# [13] = λexc 521 nm, in acetonitrile, room temperature
compound,measurement,setting,value
"[Ru+2].c1ccc(-c2ccccn2)nc1.c1ccc(-c2ccccn2)nc1.c1ccc(-c2ccccn2)nc1 [[Ru(bpy)3]^2+, reference compound]",φΔ (generator of 1O2),[1]; conditions not given,≈ 0.73
same,φP (phosphorescence),[2],≈ 0.02
same,"φPS, quantum yield for photosubstitution","[3]; λexc 436 nm, at 363 K in 0.1 M aqueous HCl",0.00053 (436) ^e
same,"φPS, quantum yield for photosubstitution",[3]; [10],0 (450) ^f
CC(C)(C)OC(=O)N[C@H](CSCCC(=O)NCc1cccnc1)Cc1ccccc1 [compound 24],IC50,CYP3A4,1.5 µM
"N.N.[Ru+2].c1ccc(-c2ccccn2)nc1.c1ccc(-c2ccccn2)nc1 [8^2+, [Ru(bpy)2(NH3)2]^2+]","φPS, quantum yield for photosubstitution","[3]; λexc 350 nm, in water, room temperature",0.024 (350) ^j
"CC(C)(C)c1ccc(S(=O)(=O)NCc2ccc(C(=O)Nc3cccnc3)cc2)cc1.[Ru+2].c1ccc(-c2cccc(-c3ccccn3)n2)nc1.c1ccc2nc(-c3ccc4ccccc4n3)ccc2c1 [12^2+, [Ru(tpy)(biq)(STF31)]^2+]",PI value (photoindex),"A431 skin cancer cells; A431 cells, normoxia (21% O2)",3.3
same,EC50,"A431 skin cancer cells; A431 skin cancer cells, normoxia, dark",23.6 µM
same,PI value (photoindex),A431 skin cancer cells; hypoxic A431 cells (1% O2),3.6
same,λmax (absorption maximum),Figure 6 bottom,531 nm
same,"εexc, molar absorption coefficient at the excitation wavelength",λexc = 625 nm (red light),379 M^–1·cm^–1
same,loss of potency on caging relative to STF31,"NAMPT; NAMPT, dark",18 times
same,IC50,"NAMPT; caged compound in the dark, read-out: IC50,dark, NAMPT inhibition",4.8 µM
same,"φPS, quantum yield for photosubstitution","[3]; λexc 625 nm, in water, room temperature",0.013 (625) ^j
"CSCCO.[Ru+2].c1ccc(-c2cccc(-c3ccccn3)n2)nc1.c1ccc(-c2ccccn2)nc1 [[Ru(tpy)(bpy)(Hmte)]^2+, reference compound]","φPS, quantum yield for photosubstitution","[3]; λexc 452 nm, in water, room temperature",0.022 (452) ^j
"O.[Ru+2].c1ccc(-c2cccc(-c3ccccn3)n2)nc1.c1ccc(-c2ccccn2)nc1 [[Ru(tpy)(bpy)(OH2)]^2+, reference compound]",toxicity of the complex by itself,[4],poorly toxic
"CC(C)(C)OC(=O)N[C@H](CSCCC(=O)NCc1cccnc1)Cc1ccccc1.Cc1cccc(-c2cccc(C)n2)n1.[Ru+2].c1ccc(-c2cccc(-c3ccccn3)n2)nc1 [11^2+, [Ru(tpy)(dmbpy)(R-py)]^2+]",IC50,CYP3A4; after light activation,2.2 µM
same,IC50,CYP3A4; in the dark,0.9 µM
same,"φPS, quantum yield for photosubstitution","[3]; λexc 500 nm, in acetonitrile, room temperature",0.31 (500) ^f
same,"φPS, quantum yield for photosubstitution","[3]; λexc 500 nm, in water, room temperature",0.15 (500) ^j
[Ru(bapbpy)(dmso)(OH2)]^+ [10^2+],effect of light irradiation performed in cancer cells,cancer cells,led to cell death
same,"φPS, quantum yield for photosubstitution",[3]; [11],0.003 (450) ^j
"CC#N.CC(=O)C=C(C)[O][Ru+].c1ccc(-c2cccc(-c3ccccn3)n2)nc1 [1^+, [Ru(tpy)(acac)(MeCN)]^+]",toxicity in the dark,[4]; dark,quite toxic in the dark
same,"φPS, quantum yield for photosubstitution",[3]; [11],0.014 (450) ^j
"CC#N.CC#N.CC#N.[Ru+2].c1ccc(-c2cccc(-c3ccccn3)n2)nc1 [[Ru(tpy)(MeCN)3]^2+, reference compound]","φPS, photosubstitution of one axial MeCN by chloride",[3]; 436 nm,0.040
same,"φPS, photosubstitution of one axial MeCN by chloride",[3]; 480 nm,0.041
"CP(C)C.[Ru+2].c1c[nH]cn1.c1ccc(-c2ccccn2)nc1.c1ccc(-c2ccccn2)nc1 [cis-9^2+, cis-[Ru(bpy)2(PMe3)(ImH)]^2+]",absorption maximum,,432 nm
same,"φPS, quantum yield for photosubstitution",[3]; [12],0.10 ^j
"CC#N.CC#N.[Ru+2].c1ccc(-c2ccccn2)nc1.c1ccc2cc3nc4c5cccnc5c5ncccc5c4nc3cc2c1 [17^2+, [Ru(bpy)(dppn)(MeCN)2]^2+]","φPS, quantum yield for photosubstitution","[3]; λexc 400 nm, in water, room temperature",0.002 (400) ^j
"Oc1cccc(-c2cccc(O)n2)n1.[Ru+2].c1ccc(-c2ccccn2)nc1.c1ccc(-c2ccccn2)nc1 [3^2+, [Ru(bpy)2(6,6′-dOHbpy)]^2+]","φΔ, singlet oxygen (1O2) generation quantum yield",[1]; Table 1 row with φPS at pH 5.0,0.041 ^i
same,"φΔ, singlet oxygen (1O2) generation quantum yield",[1]; Table 1 row with φPS at pH 7.5,0.18 ^i
same,λmax^MLCT,Table 1 row with φPS in aqueous solution at pH 5.0,462 nm
same,λmax^MLCT,Table 1 row with φPS in aqueous solution at pH 7.5,493 nm
same,"φPS, quantum yield for photosubstitution","[3]; λexc 450 nm, in aqueous solution at pH 5.0",0.0058 (450) ^g
same,"φPS, quantum yield for photosubstitution","[3]; λexc 450 nm, in aqueous solution at pH 7.5",0.0012 (450) ^h
"CSCCc1ccccn1.[Ru+2].c1ccc(-c2ccccn2)nc1.c1ccc(-c2ccccn2)nc1 [[Ru(bpy)2(mtep)]^2+, reference compound]","φPS, mtep photosubstitution",[3],0.0030
"Cc1cccc(-c2cccc(C)n2)n1.[Cl-].[Cl][Ru+].c1ccc(-c2cccc(-c3ccccn3)n2)nc1 [[Ru(try)(dmbpy)Cl]Cl, [Ru(tpy)(dmbpy)Cl]Cl, reference compound]",IC50,CYP3A4,50 µM
"CC(C)(C)c1ccc(S(=O)(=O)NCc2ccc(C(=O)Nc3cccnc3)cc2)cc1 [STF31, reference compound]",IC50,"NAMPT; uncaged inhibitor, read-out: IC50, NAMPT inhibition",0.25 µM
"CP(C)C.[Ru+2].c1c[nH]cn1.c1ccc(-c2ccccn2)nc1.c1ccc(-c2ccccn2)nc1 [trans-9^2+, trans-[Ru(bpy)2(PMe3)(ImH)]^2+]",absorption maximum,,464 nm
same,"φPS, quantum yield for photosubstitution",[3]; [12],0.23 ^j
"CSCCc1ccccn1.[Ru+][c]1ccccc1-c1ccccn1.c1ccc(-c2ccccn2)nc1 [23^+, [Ru(bpy)(phpy)(mtep)]^+]","φPS, mtep photosubstitution",[3],0.00035
same,"φPS, quantum yield for photosubstitution",[3]; [13],0.00035 (521) ^f
"CC#N.CC#N.[Ru+2].c1ccc(-c2ccccn2)nc1.c1ccc(-c2ccccn2)nc1 [[Ru(bpy)2(MeCN)2]^2+, reference compound]","φPS, quantum yield for photosubstitution",[3]; [11],0.22 (450) ^j
same,"φPS, quantum yield for photosubstitution","[3]; λexc printed as 40098 nm, in water, room temperature",0.21 (40098) ^j
"CSCc1ccccn1.[Ru+2].c1ccc(-c2ccccn2)nc1.c1ccc(-c2ccnc3c2ccc2c(-c4ccccc4)ccnc23)cc1 [5^2+, [Ru(dpp)(bpy)(mtmp)]^2+]",PI value (photoindex),[5],8.5
same,antitumor activity in vivo,[6],no antitumor activity
same,PI value (photoindex),[7],8.8
same,PI value (photoindex),[8],> 31
same,activation in vivo,"[9]; four consecutive PACT treatments of 90 min irradiation (114 J/cm^2) each, 520 nm",clear activation
same,antitumor activity in vivo,"[9]; orthotopic eye tumor model, retro-orbital injection, green light (520 nm, 114 J/cm^2)",good antitumor activity
same,photosubstitution quantum yield,[3]; in deaerated acetonitrile,0.11
same,"φPS, quantum yield for photosubstitution",[3]; [13],0.111 (521) ^f
"Cc1cccc(-c2cccc(C)n2)n1.[Ru+2].c1ccc(-c2ccccn2)nc1.c1ccc(-c2ccccn2)nc1 [2^2+, [Ru(bpy)2(dmbpy)]^2+]","φPS, quantum yield for photosubstitution","[3]; λexc 413 nm, in acetonitrile, room temperature",0.05 (413) ^f
"CS(C)=O.[Ru+2].c1ccc(-c2cccc(-c3ccccn3)n2)nc1.c1ccc(-c2ccccn2)nc1 [[Ru(tpy)(bpy)(dmso)]^2+, reference compound]",quantum yield of photosubstitution of dmso by acetonitrile,[3]; at 450 nm,0.016
same,"φPS, quantum yield for photosubstitution",[3]; [10],0.016 (450) ^f
